Results from patent US20080187984A1, “Myo-inositol oxygenases” (Cargill, Incorporated, priority 2001, published 2008).

Columns and labels:
[1] = molecular target: T1, ycbD product (aldehyde dehydrogenase) (Bacillus subtilis, UniProt P42236); assay: Dehydrogenase activity of cell extracts, absorbance at 340 nm; assay type: biochemical; details: 200 mM substrate, 0.05 mL cell extract (0.25 mg protein); for Relative Activity NAD: 1 mM NAD; for Relative Activity NADP: 1 mM NADP
T1 construct: made in house; host or cells: E. coli BLR(DE3), [ycbD+ycbE]-pET30a, desalted cell extract
T1 sequence (P42236 whole entry): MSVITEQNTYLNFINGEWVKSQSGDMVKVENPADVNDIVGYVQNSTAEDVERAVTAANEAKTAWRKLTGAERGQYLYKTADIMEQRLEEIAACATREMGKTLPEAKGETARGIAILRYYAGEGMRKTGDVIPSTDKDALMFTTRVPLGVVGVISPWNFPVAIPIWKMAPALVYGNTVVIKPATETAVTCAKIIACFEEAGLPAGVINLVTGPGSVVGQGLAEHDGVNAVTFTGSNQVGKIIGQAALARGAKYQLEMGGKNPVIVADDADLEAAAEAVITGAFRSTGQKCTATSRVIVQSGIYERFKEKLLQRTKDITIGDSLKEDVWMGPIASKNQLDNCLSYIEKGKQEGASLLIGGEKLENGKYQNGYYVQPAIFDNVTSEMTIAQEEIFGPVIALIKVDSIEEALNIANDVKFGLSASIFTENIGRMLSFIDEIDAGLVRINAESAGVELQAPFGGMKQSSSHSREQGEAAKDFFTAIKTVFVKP
Experimental: The dehydrogenase activity of the cell extracts was followed using acetaldehyde, glucuronic acid, and glucurono-3,6-lactone as substrates in 96-well plates. Each assay mixture contained 100 mM potassium phosphate, pH 7.8, 1 mM NADP or NAD, 200 mM substrate, and between 0.02 and 0.1 mL cell extract (0.1 to 0.5 mg protein). The reactions were started by adding the enzyme and were incubated at 30° C. in the spectrophotometer. The dehydrogenase activity was followed by monitoring the linear change in absorbance at 340 nm over a 10 minute time period (referenced to a reaction mixture without substrate).

[2] = tested on: beta-glucuronidase; details: cited from earlier work
[3] = tested on: serum cholesterol; details: mammals; cited from earlier work
[4] = molecular target: T2, myo-inositol oxygenase (MIO) (Homo sapiens, UniProt Q9UGB7); assay: MIO-orcinol assay of recombinant human MIO; assay type: biochemical
T2 construct: made in house; host or cells: Hi5 / Sf-9 insect cells (baculovirus, pFastBacHTa); also E. coli DH10B (pTRC99A) and S. cerevisiae INVSc1 (pYES2)
T2 sequence (Q9UGB7 with tags, fused parts or gaps): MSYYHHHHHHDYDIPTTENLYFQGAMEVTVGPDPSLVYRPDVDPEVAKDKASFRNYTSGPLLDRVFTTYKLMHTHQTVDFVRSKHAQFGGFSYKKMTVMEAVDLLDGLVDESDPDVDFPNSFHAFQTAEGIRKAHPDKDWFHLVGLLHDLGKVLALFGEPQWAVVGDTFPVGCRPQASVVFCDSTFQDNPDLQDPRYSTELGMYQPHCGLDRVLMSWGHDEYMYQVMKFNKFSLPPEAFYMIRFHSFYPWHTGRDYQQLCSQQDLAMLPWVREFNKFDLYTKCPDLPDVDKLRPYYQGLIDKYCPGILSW
Experimental: MIO activity was determined using a modification of the method described by Reddy et al. (J. Biol. Chem., 256, 8510 (1981)). Briefly, this assay is based on the reaction of orcinol (5-methyl-1,3-benzenediol) with the MIO enzyme reaction product, D-glucuronic acid. The standard assay mixture contained 50 mM Tris-HCl (pH 8.0), 2.0 mM cysteine, 1.0 mM ferrous ammonium sulfate, 60 mM myo-inositol, and appropriate quantities of enzyme in a total volume of 0.50 mL. The stock L-cysteine solution (0.10 M) was prepared every two weeks, and the stock ferrous ammonium sulfate solution (0.50 M) was prepared fresh daily. The enzyme solutions consisted of cell extracts prepared as described or chromatography fractions generated during the partial purification of the enzyme. Prior to initiating the reaction by addition of the substrate myo-inositol (stock solution of 0.50 M, dissolved in 50 mM TEGG), all other reagents were mixed together by vortexing and incubated for 5 minutes at 30° C. The substrate was then added to initiate the assay. After vortex-mixing the components, the reaction was carried out in an air atmosphere at 30° C. with shaking at 200 rpm for 10 minutes. The reaction was terminated by the addition of 75 μL of 20% trichloroacetic acid. After vortexing, the assay mixture was transferred to a 1.5 mL polypropylene microcentrifuge tube, and the precipitated polypeptide was separated by centrifugation at 21,000×g for 3 minutes at 25° C. The supernatant was transferred to a new 1.5 mL polypropylene microcentrifuge tube, and the D-glucuronic acid concentration was determined by the orcinol colorimetric assay.
The orcinol colorimetric determination assay was performed as follows. Freshly prepared orcinol reagent (0.6 mL; 0.4% (w/v) orcinol, 0.09% (w/v) ferric trichloride hexahydrate in concentrated HCl) was added to 0.3 mL of the clear supernatant. The mixture was vortex-mixed and then incubated in a boiling water bath for 30 minutes. After cooling to 25° C., the mixture was cleared by centrifugation at 21,000×g for 3 minutes. The supernatant was transferred to a disposable cuvette, and the absorbance was measured at 660 nm. A standard curve was generated by replacing the enzyme fraction with D-glucuronic acid (0 to 40 μg/mL) and carrying out the assay as described above. […]
All reactions were run in duplicate, and all polypeptide fractions were assayed with and without added myo-inositol substrate (an equal volume of TEGG buffer with or without substrate was added to initiate the assay). The average of the absorbance readings of the assay mixtures carried out without substrate was subtracted from the average of readings of the assay mixtures containing substrate. […]

[5] = molecular target: T3, glucuronate reductase (Rattus norvegicus, UniProt P51635, T2A); assay: GLR assay, loss of absorbance at 340 nm (loss of NADPH); assay type: biochemical
T3 construct: His tag (pET30a fusion); made in house; host or cells: E. coli BLR(DE3), pET30a
T3 sequence (P51635 1-325 T2A): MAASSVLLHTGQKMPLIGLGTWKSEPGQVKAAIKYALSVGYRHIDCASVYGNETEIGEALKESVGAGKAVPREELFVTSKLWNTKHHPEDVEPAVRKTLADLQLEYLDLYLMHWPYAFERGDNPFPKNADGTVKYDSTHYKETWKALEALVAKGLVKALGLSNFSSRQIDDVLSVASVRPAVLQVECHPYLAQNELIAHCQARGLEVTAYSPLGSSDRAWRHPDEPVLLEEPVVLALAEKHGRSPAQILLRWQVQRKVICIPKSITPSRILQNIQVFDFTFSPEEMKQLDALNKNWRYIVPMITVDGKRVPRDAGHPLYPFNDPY
Experimental: GLR was assayed by following the loss of absorbance at 340 nm (loss of NADPH) using 0.3 mM NADPH, 10 mM glucuronic acid, and variable amount of enzyme in 100 mM sodium phosphate, pH 6.6 (Hayashi et al., J. Biochem., 95:2223-2232 (1984)). 1-2 micromoles of NADPH were typically consumed per minute per mg protein.

## O=C[C@H](O)[C@@H](O)[C@H](O)[C@H](O)C(=O)O [D-glucuronate]
[1]
  Relative Activity NAD: 2.4 percentage of maximum activity
  Relative Activity NADP: 2.1 percentage of maximum activity

## O=C[C@H](O)[C@H]1OC(=O)[C@@H](O)[C@H]1O [D-glucurono-3,6-lactone]
[1]
  Relative Activity NAD: 2.1 percentage of maximum activity
  Relative Activity NADP: 50.6 percentage of maximum activity

## O=C(O)[C@@H](O)[C@@H](O)[C@H](O)[C@@H](O)C(=O)O [Glucaric acid]
[2]
  inhibition of beta-glucuronidase: potent inhibitor
[3]
  effect on serum cholesterol: lower serum cholesterol

## CC=O [acetaldehyde]
[1]
  Relative Activity NAD: 56.9 percentage of maximum activity
  Relative Activity NADP: 100.0 percentage of maximum activity

B1: human MIO polypeptide: Human myo-inositol oxygenase (ORF EMBL: CAB63064.1) expressed in E. coli or S. cerevisiae, assayed in cell extracts (protein, UniProt Q9UGB7 1-285, looked up)
Inositol oxygenase: MKVTVGPDPSLVYRPDVDPEVAKDKASFRNYTSGPLLDRVFTTYKLMHTHQTVDFVRSKHAQFGGFSYKKMTVMEAVDLLDGLVDESDPDVDFPNSFHAFQTAEGIRKAHPDKDWFHLVGLLHDLGKVLALFGEPQWAVVGDTFPVGCRPQASVVFCDSTFQDNPDLQDPRYSTELGMYQPHCGLDRVLMSWGHDEYMYQVMKFNKFSLPPEAFYMIRFHSFYPWHTGRDYQQLCSQQDLAMLPWVREFNKFDLYTKCPDLPDVDKLRPYYQGLIDKYCPGILSW
[4]; E. coli, pTRC99A, IPTG induced, desalted cell extract
  specific activity: 8.8 μg glucuronic acid formed per mg polypeptide in 10 minutes
[4]; S. cerevisiae INVSc1, pYES2, cell extract, 12 hours after induction
  specific activity: 13.4 μg glucuronic acid formed per mg polypeptide in 10 minutes

B2: purified polypeptide: His-tagged human MIO polypeptide, SEQ ID NO:12, expressed by baculovirus in insect cells (protein)
chain: MSYYHHHHHHDYDIPTTENLYFQGAMEVTVGPDPSLVYRPDVDPEVAKDKASFRNYTSGPLLDRVFTTYKLMHTHQTVDFVRSKHAQFGGFSYKKMTVMEAVDLLDGLVDESDPDVDFPNSFHAFQTAEGIRKAHPDKDWFHLVGLLHDLGKVLALFGEPQWAVVGDTFPVGCRPQASVVFCDSTFQDNPDLQDPRYSTELGMYQPHCGLDRVLMSWGHDEYMYQVMKFNKFSLPPEAFYMIRFHSFYPWHTGRDYQQLCSQQDLAMLPWVREFNKFDLYTKCPDLPDVDKLRPYYQGLIDKYCPGILSW
modifications: His tag; human polypeptide with non-human sequences
[4]; Hi5 insect cells, baculovirus expression, FIG. 8
  MIO activity: exhibited MIO activity
[4]; Nickel-NTA purified to homogeneity, from insect cells
  specific activity: 225 μg glucuronic acid formed per mg polypeptide during a 10 minute assay

B3: GLR: glucuronate reductase, rat glr expressed from pET30a in E. coli, His-Bind purified (protein, UniProt P51635 2-325, looked up)
Aldo-keto reductase family 1 …: TASSVLLHTGQKMPLIGLGTWKSEPGQVKAAIKYALSVGYRHIDCASVYGNETEIGEALKESVGAGKAVPREELFVTSKLWNTKHHPEDVEPAVRKTLADLQLEYLDLYLMHWPYAFERGDNPFPKNADGTVKYDSTHYKETWKALEALVAKGLVKALGLSNFSSRQIDDVLSVASVRPAVLQVECHPYLAQNELIAHCQARGLEVTAYSPLGSSDRAWRHPDEPVLLEEPVVLALAEKHGRSPAQILLRWQVQRKVICIPKSITPSRILQNIQVFDFTFSPEEMKQLDALNKNWRYIVPMITVDGKRVPRDAGHPLYPFNDPY
modifications: His tag
[5]; 0.3 mM NADPH, 10 mM glucuronic acid, pH 6.6
  NADPH consumed: 1-2 micromoles per minute per mg p
[5]; His-Bind purified from E. coli
  Specific Activity (purified protein): 1 to 3 µmol/min/mg
